Numbers after ± are expanded uncertainties.
Assay: xn = mol fraction of the nth substance listed
Conditions: Liquid

CN(CCO)CCO [N-methyldiethanolamine] + O
Conditions | mass density [kg/m3]
313.12 K, 1001 kPa, x1 = 0.0369 | 1005.7 ± 0.4
313.12 K, 2015 kPa, x1 = 0.0369 | 1006.1 ± 0.4
313.12 K, 2986 kPa, x1 = 0.0369 | 1006.5 ± 0.4
313.12 K, 3994 kPa, x1 = 0.0369 | 1006.9 ± 0.4
313.12 K, 5003 kPa, x1 = 0.0369 | 1007.3 ± 0.4
313.12 K, 6002 kPa, x1 = 0.0369 | 1007.7 ± 0.4
313.12 K, 6994 kPa, x1 = 0.0369 | 1008.1 ± 0.4
313.12 K, 7995 kPa, x1 = 0.0369 | 1008.5 ± 0.4
313.12 K, 8996 kPa, x1 = 0.0369 | 1008.9 ± 0.4
313.12 K, 9983 kPa, x1 = 0.0369 | 1009.3 ± 0.4
313.12 K, 10989 kPa, x1 = 0.0369 | 1009.7 ± 0.4
313.12 K, 11991 kPa, x1 = 0.0369 | 1010.1 ± 0.4
313.12 K, 12991 kPa, x1 = 0.0369 | 1010.5 ± 0.4
313.12 K, 13988 kPa, x1 = 0.0369 | 1010.9 ± 0.4
313.12 K, 14989 kPa, x1 = 0.0369 | 1011.4 ± 0.4
313.12 K, 15985 kPa, x1 = 0.0369 | 1011.7 ± 0.4
313.12 K, 16984 kPa, x1 = 0.0369 | 1012.1 ± 0.4
313.12 K, 17985 kPa, x1 = 0.0369 | 1012.5 ± 0.4
313.12 K, 18989 kPa, x1 = 0.0369 | 1012.9 ± 0.4
313.12 K, 19945 kPa, x1 = 0.0369 | 1013.3 ± 0.5
313.13 K, 1003 kPa, x1 = 0.1302 | 1033.5 ± 0.4
313.13 K, 1011 kPa, x1 = 0.0893 | 1025.9 ± 0.4
313.13 K, 1993 kPa, x1 = 0.1302 | 1033.9 ± 0.4
313.13 K, 1994 kPa, x1 = 0.0893 | 1026.2 ± 0.4
313.13 K, 2999 kPa, x1 = 0.1302 | 1034.3 ± 0.4
313.13 K, 3002 kPa, x1 = 0.0893 | 1026.6 ± 0.4
313.13 K, 3994 kPa, x1 = 0.1302 | 1034.6 ± 0.4
313.13 K, 3998 kPa, x1 = 0.0893 | 1027 ± 0.4
313.13 K, 4984 kPa, x1 = 0.1302 | 1035 ± 0.5
313.13 K, 4998 kPa, x1 = 0.0893 | 1027.4 ± 0.4
313.13 K, 6001 kPa, x1 = 0.0893 | 1027.8 ± 0.4
313.13 K, 6001 kPa, x1 = 0.1302 | 1035.4 ± 0.5
313.13 K, 6993 kPa, x1 = 0.1302 | 1035.8 ± 0.5
313.13 K, 6994 kPa, x1 = 0.0893 | 1028.1 ± 0.4
313.13 K, 8000 kPa, x1 = 0.0893 | 1028.5 ± 0.4
313.13 K, 8003 kPa, x1 = 0.1302 | 1036.1 ± 0.5
313.13 K, 8996 kPa, x1 = 0.1302 | 1036.5 ± 0.5
313.13 K, 8999 kPa, x1 = 0.0893 | 1028.9 ± 0.5
313.13 K, 9989 kPa, x1 = 0.1302 | 1036.8 ± 0.5
313.13 K, 9995 kPa, x1 = 0.0893 | 1029.2 ± 0.5
313.13 K, 10983 kPa, x1 = 0.1302 | 1037.2 ± 0.5
313.13 K, 10990 kPa, x1 = 0.0893 | 1029.6 ± 0.5
313.13 K, 11992 kPa, x1 = 0.1302 | 1037.6 ± 0.5
313.13 K, 12001 kPa, x1 = 0.0893 | 1030 ± 0.5
313.13 K, 12980 kPa, x1 = 0.1302 | 1037.9 ± 0.5
313.13 K, 12989 kPa, x1 = 0.0893 | 1030.3 ± 0.5
313.13 K, 14000 kPa, x1 = 0.0893 | 1030.7 ± 0.5
313.13 K, 14000 kPa, x1 = 0.1302 | 1038.3 ± 0.5
313.13 K, 14999 kPa, x1 = 0.0893 | 1031.1 ± 0.5
313.13 K, 15002 kPa, x1 = 0.1302 | 1038.7 ± 0.5
313.13 K, 15995 kPa, x1 = 0.0893 | 1031.4 ± 0.5
313.13 K, 16001 kPa, x1 = 0.1302 | 1039.1 ± 0.5
313.13 K, 16998 kPa, x1 = 0.1302 | 1039.5 ± 0.5
313.13 K, 17013 kPa, x1 = 0.0893 | 1031.8 ± 0.5
313.13 K, 17991 kPa, x1 = 0.1302 | 1039.8 ± 0.5
313.13 K, 17993 kPa, x1 = 0.0893 | 1032.2 ± 0.5
313.13 K, 18991 kPa, x1 = 0.0893 | 1032.6 ± 0.5
313.13 K, 18996 kPa, x1 = 0.1302 | 1040.2 ± 0.5
313.13 K, 19990 kPa, x1 = 0.1302 | 1040.5 ± 0.5
313.13 K, 19991 kPa, x1 = 0.0893 | 1032.9 ± 0.5
313.14 K, 999 kPa, x1 = 0.0607 | 1018.1 ± 0.4
313.14 K, 2000 kPa, x1 = 0.0607 | 1018.5 ± 0.4
313.14 K, 3028 kPa, x1 = 0.0607 | 1018.9 ± 0.4
313.14 K, 4020 kPa, x1 = 0.0607 | 1019.3 ± 0.4
313.14 K, 5011 kPa, x1 = 0.0607 | 1019.7 ± 0.4
313.14 K, 6015 kPa, x1 = 0.0607 | 1020.1 ± 0.4
313.14 K, 7003 kPa, x1 = 0.0607 | 1020.4 ± 0.4
313.14 K, 8009 kPa, x1 = 0.0607 | 1020.8 ± 0.4
313.14 K, 9014 kPa, x1 = 0.0607 | 1021.2 ± 0.4
313.14 K, 10000 kPa, x1 = 0.0607 | 1021.5 ± 0.4
313.14 K, 10977 kPa, x1 = 0.0607 | 1022 ± 0.4
313.14 K, 12029 kPa, x1 = 0.0607 | 1022.3 ± 0.5
313.14 K, 13022 kPa, x1 = 0.0607 | 1022.7 ± 0.5
313.14 K, 13988 kPa, x1 = 0.0607 | 1023 ± 0.5
313.14 K, 15009 kPa, x1 = 0.0607 | 1023.4 ± 0.5
313.14 K, 16003 kPa, x1 = 0.0607 | 1023.8 ± 0.5
313.14 K, 16995 kPa, x1 = 0.0607 | 1024.2 ± 0.5
313.14 K, 18007 kPa, x1 = 0.0607 | 1024.6 ± 0.5
313.14 K, 19000 kPa, x1 = 0.0607 | 1024.9 ± 0.5
313.14 K, 19950 kPa, x1 = 0.0607 | 1025.3 ± 0.5
323.08 K, 1011 kPa, x1 = 0.0607 | 1012.5 ± 0.4
323.08 K, 2015 kPa, x1 = 0.0607 | 1012.9 ± 0.4
323.08 K, 3015 kPa, x1 = 0.0607 | 1013.2 ± 0.4
323.08 K, 4025 kPa, x1 = 0.0607 | 1013.7 ± 0.4
323.08 K, 4995 kPa, x1 = 0.0607 | 1014 ± 0.4
323.08 K, 6015 kPa, x1 = 0.0607 | 1014.4 ± 0.4
323.08 K, 7015 kPa, x1 = 0.0607 | 1014.8 ± 0.4
323.08 K, 7992 kPa, x1 = 0.0607 | 1015.2 ± 0.4
323.08 K, 9006 kPa, x1 = 0.0607 | 1015.6 ± 0.4
323.08 K, 10014 kPa, x1 = 0.0607 | 1016 ± 0.4
323.08 K, 11000 kPa, x1 = 0.0607 | 1016.3 ± 0.4
323.08 K, 12064 kPa, x1 = 0.0607 | 1016.8 ± 0.4
323.08 K, 13004 kPa, x1 = 0.0607 | 1017.1 ± 0.4
323.08 K, 13990 kPa, x1 = 0.0607 | 1017.5 ± 0.4
323.08 K, 14997 kPa, x1 = 0.0607 | 1017.9 ± 0.4
323.08 K, 15999 kPa, x1 = 0.0607 | 1018.2 ± 0.4
323.08 K, 16993 kPa, x1 = 0.0607 | 1018.6 ± 0.5
323.08 K, 18008 kPa, x1 = 0.0607 | 1019 ± 0.5
323.08 K, 19017 kPa, x1 = 0.0607 | 1019.4 ± 0.5
323.08 K, 19961 kPa, x1 = 0.0607 | 1019.7 ± 0.5
323.09 K, 1017 kPa, x1 = 0.1302 | 1026.6 ± 0.4
323.09 K, 1034 kPa, x1 = 0.0369 | 1001.1 ± 0.4
323.09 K, 2001 kPa, x1 = 0.1302 | 1027 ± 0.4
323.09 K, 2004 kPa, x1 = 0.0369 | 1001.5 ± 0.4
323.09 K, 2993 kPa, x1 = 0.0369 | 1001.9 ± 0.4

— the NIST ThermoML archive (doi:10.1021/je700287u)
